These are literature values, as cited in patent publication US7323174B1, “Modulation of immune response and methods based thereon” (Arizona Board of Regents on behalf of The University of …, priority 2000, dated 2008).

No end group written: not given here.

Data set [1] concerns immunodeficiency-type retrovirus. Conditions: individuals infected with an immunodeficiency-type retrovirus; described in U.S. Pat. No. 5,911,990.
Data set [2] deals with Th1 and Th2 cytokine production. The conditions noted are these: individuals infected with an immunodeficiency-type retrovirus; described in U.S. Pat. No. 5,911,990.

CKPISGHNSLFWYRQT [SEQ ID NO:1]: in data set [1], the “progression to AIDS” value was “suppress progression to AIDS”. Moreover, the “aberrant Th1 and Th2 cytokine production” value in data set [2] is “normalize aberrant Th1 and Th2 cytokine production”.
